# According to patent US11059886B1, “Methods and compositions for treating inflammatory or autoimmune diseases or conditions using GRM8 activators” (Flagship Pioneering Innovations V, Inc., priority 2018, dated 2021):
# System: M2-like macrophages
# Assay: IL-8 secretion by M-CSF-differentiated human monocyte-derived M2-like macrophages (LEGENDplex bead-based immunoassay of supernatant)
# Format: cell-based
# Conditions: M2-like macrophages from human CD14+ monocytes
# Protocol: CD14+ monocytes were isolated from human PBMCs using negative magnetic bead selection (Stemcell Technologies) on day 0. Cells were cultured with M-CSF to differentiate monocytes to macrophages. On day 6, cells were treated with L-AP4 (selective group III metabotropic glutamate receptor agonist) (Sigma-Aldrich), at concentrations 1 μM and 10 μM overnight. Supernatant was collected and LEGENDplex™ bead-based immunoassays (Biolegend) were performed to detect for changes in cytokines secreted.
# Secretion of the inflammatory cytokine, IL-8, was decreased with the addition of the mGluR8 agonist in M2-like macrophages, consistent across multiple donors, as shown in Table 15 below.
compound,measurement,setting,value
NC(CCP(=O)(O)O)C(=O)O [L-AP4],Fold change of IL-8 (Normalized to M2-like Macs + LPS with no compound treatment),L-AP4 1 μM overnight,0.646 fold change
same,Fold change of IL-8 (Normalized to M2-like Macs + LPS with no compound treatment),L-AP4 10 μM overnight,0.866 fold change
